According to the supplement of paper PMC10307832:

How the values were obtained:
Assay in all cases: relative viability (nuclei count vs DMSO), 5 days (fraction); higher = more cells survive
Calu-6 = test system: Calu-6
How it was run: (§1)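 Lung cancer cell lines in 1536-well plates were dosed by pin tool the day after seeding, either with one drug alone or with a fixed anchor-drug dose plus five library-drug doses (not always all listed) in √10 steps. After 5 days, cells were fixed and their nuclei stained in one step (final 0.05% Triton X-100, 1% formaldehyde, 1 ug/ml Hoechst), then counted on 4× images. Relative viability is the nuclei count in treated wells divided by that in vehicle wells. Values are medians of duplicate plates.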

NCI-H1944 = test system: NCI-H1944
How it was run: as §1

NCI-H661 = test system: NCI-H661
How it was run: as §1

SK-LU-1 = test system: SK-LU-1
How it was run: as §1

IA-LM = test system: IA-LM
How it was run: as §1

NCI-H1666 = test system: NCI-H1666
How it was run: as §1

NCI-H1299 = test system: NCI-H1299
How it was run: as §1

PC-14 = test system: PC-14
How it was run: as §1

A549 = test system: A549
How it was run: as §1

EBC-1 = test system: EBC-1
How it was run: as §1

NCI-H596 = test system: NCI-H596
How it was run: as §1

NCI-H1703 = test system: NCI-H1703
How it was run: as §1

With Cc1cn(-c2cc(NC(=O)c3ccc(C)c(Nc4nccc(-c5cccnc5)n4)c3)cc(C(F)(F)F)c2)cn1 [Nilotinib] + C[C@]1(O)C[C@@H](c2nc(-c3ccc4ccc(-c5ccccc5)nc4c3)c3c(N)nccn32)C1 [Linsitinib] (partner 1 µM) the relative viability (Calu-6; first compound 0.001 µM) was 0.819, the relative viability (Calu-6; first compound 0.003162 µM) was 1.06 and the relative viability (Calu-6; first compound 0.01 µM) was 1.06. For the same compound, the relative viability (Calu-6; first compound 0.03162 µM) was 0.809, the relative viability (Calu-6; first compound 0.1 µM) was 0.828 and the relative viability (NCI-H1944; first compound 0.001 µM) was 1.08. It also gave a relative viability (NCI-H1944; first compound 0.003162 µM) of 1.41, a relative viability (NCI-H1944; first compound 0.01 µM) of 1.5 and a relative viability (NCI-H1944; first compound 0.03162 µM) of 1.33. It also gave a relative viability (NCI-H1944; first compound 0.1 µM) of 1.36, a relative viability (NCI-H661; first compound 0.001 µM) of 0.508 and a relative viability (NCI-H661; first compound 0.003162 µM) of 0.472. The relative viability (NCI-H661; first compound 0.01 µM) was 0.612, the relative viability (NCI-H661; first compound 0.03162 µM) was 0.501 and the relative viability (NCI-H661; first compound 0.1 µM) was 0.586. It also gave a relative viability (SK-LU-1; first compound 0.001 µM) of 0.916, a relative viability (SK-LU-1; first compound 0.003162 µM) of 1.25 and a relative viability (SK-LU-1; first compound 0.01 µM) of 1.46. For the same compound, the relative viability (SK-LU-1; first compound 0.03162 µM) was 0.987, the relative viability (SK-LU-1; first compound 0.1 µM) was 0.9 and the relative viability (IA-LM; first compound 0.001 µM) was 0.382. The relative viability (IA-LM; first compound 0.003162 µM) was 0.31, the relative viability (IA-LM; first compound 0.01 µM) was 0.634 and the relative viability (IA-LM; first compound 0.03162 µM) was 0.346. It also gave a relative viability (IA-LM; first compound 0.1 µM) of 0.216, a relative viability (NCI-H1666; first compound 0.001 µM) of 0.854 and a relative viability (NCI-H1666; first compound 0.003162 µM) of 0.954. It also gave a relative viability (NCI-H1666; first compound 0.01 µM) of 0.74, a relative viability (NCI-H1666; first compound 0.03162 µM) of 0.911 and a relative viability (NCI-H1666; first compound 0.1 µM) of 0.945. It also gave a relative viability (NCI-H1299; first compound 0.001 µM) of 0.91, a relative viability (NCI-H1299; first compound 0.003162 µM) of 1.1 and a relative viability (NCI-H1299; first compound 0.01 µM) of 1.28. For the same compound, the relative viability (NCI-H1299; first compound 0.03162 µM) was 0.957, the relative viability (NCI-H1299; first compound 0.1 µM) was 0.762 and the relative viability (PC-14; first compound 0.001 µM) was 0.883. It also gave a relative viability (PC-14; first compound 0.003162 µM) of 1.05, a relative viability (PC-14; first compound 0.01 µM) of 1.07 and a relative viability (PC-14; first compound 0.03162 µM) of 0.898. For the same compound, the relative viability (PC-14; first compound 0.1 µM) was 1.01, the relative viability (A549; first compound 0.001 µM) was 0.778 and the relative viability (A549; first compound 0.003162 µM) was 0.582. It also gave a relative viability (A549; first compound 0.01 µM) of 0.767, a relative viability (A549; first compound 0.03162 µM) of 0.535 and a relative viability (A549; first compound 0.1 µM) of 0.286. It also gave a relative viability (EBC-1; first compound 0.001 µM) of 0.81, a relative viability (EBC-1; first compound 0.003162 µM) of 0.794 and a relative viability (EBC-1; first compound 0.01 µM) of 1.14. The relative viability (EBC-1; first compound 0.03162 µM) was 0.791, the relative viability (EBC-1; first compound 0.1 µM) was 0.66 and the relative viability (NCI-H596; first compound 0.003162 µM) was 1.26. The relative viability (NCI-H596; first compound 0.01 µM) was 1.28, the relative viability (NCI-H596; first compound 0.03162 µM) was 0.812 and the relative viability (NCI-H1703; first compound 0.001 µM) was 0.637. The relative viability (NCI-H1703; first compound 0.003162 µM) was 0.285, the relative viability (NCI-H1703; first compound 0.01 µM) was 0.343 and the relative viability (NCI-H1703; first compound 0.03162 µM) was 0.218. The relative viability (NCI-H1703; first compound 0.1 µM) was 0.136.
